PubChem BioAssay AID2060506 (Molecular Pharmacology Branch, DTP, NCI, 2025)

System: 598228-144-R-J1-PDC complex spheroid viability
Assay: Anticancer human tumor 598228-144-R-J1-PDC patient-derived serous endometrial adenocarcinoma cell line growth inhibition [GQUAD]
Settings: for IC50: curve of first compound; for viability, T/C: stronger effect = lower value
In short: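 Tumor cells were grown as complex spheroids with HUVEC endothelial cells and mesenchymal stem cells as stroma. G-quadruplex stabilizers were combined with targeted agents over half-log dilutions from near the clinical Cmax, or from 10 microM.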

[1] = second compound 0.0316 µM, first compound 0.0316 µM
[2] = second compound 0.0316 µM, first compound 0.316 µM
[3] = second compound 0.1 µM, first compound 0.0316 µM
[4] = second compound 0.1 µM, first compound 0.316 µM
[5] = second compound 0.316 µM, first compound 0.0316 µM
[6] = second compound 0.316 µM, first compound 0.316 µM
[7] = second compound 1 µM, first compound 0.0316 µM
[8] = second compound 1 µM, first compound 0.316 µM
[9] = second compound 3.16 µM, first compound 0.0316 µM
[10] = second compound 3.16 µM, first compound 0.316 µM
[11] = second compound 10 µM, first compound 0.0316 µM
[12] = second compound 10 µM, first compound 0.316 µM
[13] = second compound 0.0316 µM, first compound 0.1 µM
[14] = second compound 0.0316 µM, first compound 1 µM
[15] = second compound 0.0316 µM, first compound 3.16 µM
[16] = second compound 0.0316 µM, first compound 10 µM
[17] = second compound 0.1 µM, first compound 0.1 µM
[18] = second compound 0.1 µM, first compound 1 µM
[19] = second compound 0.1 µM, first compound 3.16 µM
[20] = second compound 0.1 µM, first compound 10 µM
[21] = second compound 0.316 µM, first compound 0.1 µM
[22] = second compound 0.316 µM, first compound 1 µM
[23] = second compound 0.316 µM, first compound 3.16 µM
[24] = second compound 0.316 µM, first compound 10 µM
[25] = second compound 1 µM, first compound 0.1 µM
[26] = second compound 1 µM, first compound 1 µM
[27] = second compound 1 µM, first compound 3.16 µM
[28] = second compound 1 µM, first compound 10 µM
[29] = second compound 3.16 µM, first compound 0.1 µM
[30] = second compound 3.16 µM, first compound 1 µM
[31] = second compound 3.16 µM, first compound 3.16 µM
[32] = second compound 3.16 µM, first compound 10 µM
[33] = second compound 10 µM, first compound 0.1 µM
[34] = second compound 10 µM, first compound 1 µM
[35] = second compound 10 µM, first compound 3.16 µM
[36] = second compound 10 µM, first compound 10 µM
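Also: spheroids exposed to the agents for one week before reading.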
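For viability, T/C in this document: percent of vehicle DMSO control viability so 100% = untreated growth.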

`Cn1ncnc1[C@H]1c2n[nH]c(=O)c3cc(F)cc(c23)N[C@@H]1c1ccc(F)cc1` + Cc1cnc(CNC(=O)c2c(=O)c3ccc(N4CCCN(C)CC4)nc3n3c2sc2ccccc23)cn1 was tested, and the IC50 (second compound 0.0316 µM) was over 316 nM, the IC50 (second compound 0.1 µM) was over 316 nM and the IC50 (second compound 0.316 µM) was over 316 nM. The IC50 (second compound 1 µM) was over 316 nM, the IC50 (second compound 3.16 µM) was 193 nM and the IC50 (second compound 10 µM) was 0.999 nM. It also gave a viability, T/C (second compound 0.0316 µM, first compound 0.000999 µM) of 81.7%, a viability, T/C (second compound 0.0316 µM, first compound 0.00316 µM) of 94% and a viability, T/C (second compound 0.0316 µM, first compound 0.00999 µM) of 87.3%. The viability, T/C [1] was 68.3%, the viability, T/C (second compound 0.0316 µM, first compound 0.0999 µM) was 74.4% and the viability, T/C [2] was 54.7%. For the same compound, the viability, T/C (second compound 0.1 µM, first compound 0.000999 µM) was 79.1%, the viability, T/C (second compound 0.1 µM, first compound 0.00316 µM) was 70.3% and the viability, T/C (second compound 0.1 µM, first compound 0.00999 µM) was 61.2%. The viability, T/C [3] was 56.4%, the viability, T/C (second compound 0.1 µM, first compound 0.0999 µM) was 60.3% and the viability, T/C [4] was 63.1%. The viability, T/C (second compound 0.316 µM, first compound 0.000999 µM) was 66.3%, the viability, T/C (second compound 0.316 µM, first compound 0.00316 µM) was 76.4% and the viability, T/C (second compound 0.316 µM, first compound 0.00999 µM) was 56.8%. The viability, T/C [5] was 55.9%, the viability, T/C (second compound 0.316 µM, first compound 0.0999 µM) was 59% and the viability, T/C [6] was 55.1%. The viability, T/C (second compound 1 µM, first compound 0.000999 µM) was 55.5%, the viability, T/C (second compound 1 µM, first compound 0.00316 µM) was 54.3% and the viability, T/C (second compound 1 µM, first compound 0.00999 µM) was 56%. For the same compound, the viability, T/C [7] was 64.2%, the viability, T/C (second compound 1 µM, first compound 0.0999 µM) was 59.3% and the viability, T/C [8] was 64.1%. The viability, T/C (second compound 3.16 µM, first compound 0.000999 µM) was 57.5%, the viability, T/C (second compound 3.16 µM, first compound 0.00316 µM) was 53.8% and the viability, T/C (second compound 3.16 µM, first compound 0.00999 µM) was 52.9%. The viability, T/C [9] was 58.5%, the viability, T/C (second compound 3.16 µM, first compound 0.0999 µM) was 57% and the viability, T/C [10] was 42%. It also gave a viability, T/C (second compound 10 µM, first compound 0.000999 µM) of 40.5%, a viability, T/C (second compound 10 µM, first compound 0.00316 µM) of 45.7% and a viability, T/C (second compound 10 µM, first compound 0.00999 µM) of 59.1%. For the same compound, the viability, T/C [11] was 38.1%, the viability, T/C (second compound 10 µM, first compound 0.0999 µM) was 51.7% and the viability, T/C [12] was 32.5%.
Work on `CC1COCCN1c1cc(C2(S(C)(=N)=O)CC2)nc(-c2ccnc3[nH]ccc23)n1` (stereo not drawn) + CN(C)c1ccc(Nc2c3ccc(NC(=O)CCN4CCCC4)cc3nc3cc(NC(=O)CCN4CCCC4)ccc23)cc1 yielded an IC50 (second compound 0.0316 µM) of 2870 nM, an IC50 (second compound 0.1 µM) of 8670 nM and an IC50 (second compound 0.316 µM) of over 10000 nM. The IC50 (second compound 1 µM) was over 10000 nM, the IC50 (second compound 3.16 µM) was over 10000 nM and the IC50 (second compound 10 µM) was 1730 nM. It also gave a viability, T/C [1] of 91.7%, a viability, T/C [13] of 117% and a viability, T/C [2] of 102%. The viability, T/C [14] was 81.5%, the viability, T/C [15] was 46.5% and the viability, T/C [16] was 47%. The viability, T/C [3] was 97.7%, the viability, T/C [17] was 122% and the viability, T/C [4] was 98.7%. It also gave a viability, T/C [18] of 98.3%, a viability, T/C [19] of 62.7% and a viability, T/C [20] of 48.3%. The viability, T/C [5] was 97.1%, the viability, T/C [21] was 136% and the viability, T/C [6] was 85%. The viability, T/C [22] was 61.8%, the viability, T/C [23] was 61.6% and the viability, T/C [24] was 45.9%. It also gave a viability, T/C [7] of 125%, a viability, T/C [25] of 96.6% and a viability, T/C [8] of 103%. It also gave a viability, T/C [26] of 70.8%, a viability, T/C [27] of 69.2% and a viability, T/C [28] of 60.1%. It also gave a viability, T/C [9] of 125%, a viability, T/C [29] of 89.2% and a viability, T/C [10] of 99.4%. For the same compound, the viability, T/C [30] was 69.4%, the viability, T/C [31] was 61.7% and the viability, T/C [32] was 57.7%. The viability, T/C [11] was 95.8%, the viability, T/C [33] was 88.5% and the viability, T/C [12] was 89.9%. The viability, T/C [34] was 64.7%, the viability, T/C [35] was 33.9% and the viability, T/C [36] was 26.6%.
Work on `COc1ncnc(C2CC2)c1-c1ncc2cnn(Cc3ccc(-c4nc(C(F)(F)F)cn4C(C)C)cc3)c2n1` + Cc1[nH]c2ccc(F)cc2c1-c1nc2c3cccnc3c3ncccc3c2[nH]1 yielded an IC50 (second compound 0.0316 µM) of over 10000 nM, an IC50 (second compound 0.1 µM) of over 10000 nM and an IC50 (second compound 0.316 µM) of over 10000 nM. The IC50 (second compound 1 µM) was over 10000 nM, the IC50 (second compound 3.16 µM) was under 31.6 nM and the IC50 (second compound 10 µM) was over 10000 nM. The viability, T/C [1] was 130%, the viability, T/C [13] was 124% and the viability, T/C [2] was 125%. It also gave a viability, T/C [14] of 93.1%, a viability, T/C [15] of 119% and a viability, T/C [16] of 112%. It also gave a viability, T/C [3] of 116%, a viability, T/C [17] of 94.5% and a viability, T/C [4] of 103%. The viability, T/C [18] was 91.8%, the viability, T/C [19] was 114% and the viability, T/C [20] was 130%. The viability, T/C [5] was 94.3%, the viability, T/C [21] was 93.3% and the viability, T/C [6] was 82%. For the same compound, the viability, T/C [22] was 93.1%, the viability, T/C [23] was 126% and the viability, T/C [24] was 105%. It also gave a viability, T/C [7] of 51.1%, a viability, T/C [25] of 76.1% and a viability, T/C [8] of 74.5%. It also gave a viability, T/C [26] of 58%, a viability, T/C [27] of 66.2% and a viability, T/C [28] of 78.3%. For the same compound, the viability, T/C [9] was 38%, the viability, T/C [29] was 31.1% and the viability, T/C [10] was 39.2%. The viability, T/C [30] was 34.2%, the viability, T/C [31] was 41.8% and the viability, T/C [32] was 38.7%. It also gave a viability, T/C [11] of 65%, a viability, T/C [33] of 65% and a viability, T/C [12] of 69.6%. It also gave a viability, T/C [34] of 57.2%, a viability, T/C [35] of 77.7% and a viability, T/C [36] of 105%.
Compound `O=C(NO)c1cnc(N2CCN(S(=O)(=O)c3ccc4ccccc4c3)CC2)nc1` + Cc1[nH]c2ccc(F)cc2c1-c1nc2c3cccnc3c3ncccc3c2[nH]1 has an IC50 (second compound 0.0316 µM) of 187 nM, an IC50 (second compound 0.1 µM) of 248 nM and an IC50 (second compound 0.316 µM) of 209 nM. The IC50 (second compound 1 µM) was 123 nM, the IC50 (second compound 3.16 µM) was under 31.6 nM and the IC50 (second compound 10 µM) was 127 nM. The viability, T/C [1] was 120%, the viability, T/C [13] was 80.4% and the viability, T/C [2] was 25.1%. It also gave a viability, T/C [14] of 0.4%, a viability, T/C [15] of 0.21% and a viability, T/C [16] of 0.21%. The viability, T/C [3] was 99.4%, the viability, T/C [17] was 97.2% and the viability, T/C [4] was 37.5%. For the same compound, the viability, T/C [18] was 0.48%, the viability, T/C [19] was 0.3% and the viability, T/C [20] was 0.23%. It also gave a viability, T/C [5] of 94.3%, a viability, T/C [21] of 90.2% and a viability, T/C [6] of 27.6%. For the same compound, the viability, T/C [22] was 0.67%, the viability, T/C [23] was 0.25% and the viability, T/C [24] was 0.34%. The viability, T/C [7] was 62.3%, the viability, T/C [25] was 52.7% and the viability, T/C [8] was 28.8%. It also gave a viability, T/C [26] of 1%, a viability, T/C [27] of 0.31% and a viability, T/C [28] of 0.56%. For the same compound, the viability, T/C [9] was 39.8%, the viability, T/C [29] was 29.3% and the viability, T/C [10] was 19.3%. It also gave a viability, T/C [30] of 0.37%, a viability, T/C [31] of 0.44% and a viability, T/C [32] of 0.51%. It also gave a viability, T/C [11] of 67.4%, a viability, T/C [33] of 54.9% and a viability, T/C [12] of 27.5%. It also gave a viability, T/C [34] of 1.72%, a viability, T/C [35] of 0.78% and a viability, T/C [36] of 0.43%.
